Results as given in US6015801A, “Method for inhibiting bone resorption” (Merck & Co., Inc., priority 1998, dated 2000).
Where two headings read alike, the source gives them in different places.

Legend:
canine esophagus = test: Esophageal irritation potential in a dog model (infusion into esophagus, histopathology); conditions: for Esophageal irritation potential: low dosages on consecutive days (Groups 7 and 8)
Method: The esophageal irritation potential of the bisphosphonates is evaluated using a dog model.
The following solutions are prepared:
(1) simulated gastric juice (pH about 2), i.e. the control solution.
(5) simulated gastric juice (pH about 2) containing about 0.20 mg/mL of risedronate sodium on a risedronic acid active basis.
(6) simulated gastric juice (pH about 2) containing about 4.0 mg/mL of tiludronate disodium on a tiludronic acid active basis.
The pH of the resulting solution is measured and if necessary is adjusted to about 2 using 1.0 M HCl (aqueous) or 1.0 M NaOH (aqueous).
The animals used in the experiments are anesthetized and administered about 50 mL of the appropriate solution over about 30 minutes by infusion into the esophagus using an infusion pump and a rubber catheter. The following treatment experiments are run:
Group 1: This control group contains four animals. Each animal is administered a dosage of about 50 mL of simulated gastric juice [solution (1)] on each of five consecutive days. The animals are sacrificed immediately after the last dose is administered. […]
Group 7: This group contains eight animals. Each animal is administered a dosage of about 50 mL of simulated gastric juice containing about 0.20 mg/mL of risedronate [solution (5)] on each of five consecutive days. The animals are sacrificed immediately after the last dose is administered.
Group 8: This group contains four animals. Each animal is administered a dosage of about 50 mL of simulated gastric juice containing about 4.0 mg/mL of tiludronate [solution (6)] on each of five consecutive days. The animals are sacrificed immediately after the last dose is administered.
The esophagus from each sacrificed animal is removed and prepared for histopathology using standard techniques by embedding the tissue in paraffin, staining with hematoxylin and eosin. The sections are examined microscopically.

esophagus = conditions: oral; literature; cited from earlier work
bone [1] = conditions: Mortensen et al. 1995; cited from earlier work
bone [2] = conditions: cited from earlier work
[3] = 0.20 mg/mL risedronate, 50 mL, 1x daily for 5 days, sacrifice immediately after last dosing (Group 7, n = 8)
[4] = 0.20 mg/mL alendronate, 50 mL, 1x daily for 5 days, sacrifice immediately after last dosing (Group 2, n = 4), monosodium trihydrate
[5] = 0.40 mg/mL alendronate, 50 mL, 2x weekly for 4 weeks (Group 6, n = 6), sacrifice about four days after last dose, immediately (Table 1), monosodium trihydrate
[6] = 0.80 mg/mL alendronate, 50 mL, 1x weekly for a total of 4 doses, sacrifice 7 days after last dosing (Group 5, n = 6), monosodium trihydrate
[7] = 0.80 mg/mL alendronate, 50 mL, single dose, sacrifice 24 hours after dosing (Group 3, n = 5), monosodium trihydrate
[8] = 0.80 mg/mL alendronate, 50 mL, single dose, sacrifice 7 days after dosing (Group 4, n = 5), monosodium trihydrate

SMILES: O=P(O)(O)C(Sc1ccc(Cl)cc1)P(=O)(O)O [Tiludronate, (4-chlorophenyl)thiomethane-1,1-disphosphonic acid]
- Esophageal irritation potential (canine esophagus): high

SMILES: NCCC(O)(P(=O)(O)O)P(=O)(O)O [Pamidronate, 3-amino-1-hydroxypropylidene-1,1-bisphosphonic acid]
- Adverse esophageal effects associated with use (esophagus): esophageal ulcers

SMILES: O=P(O)(O)C(O)(Cc1cccnc1)P(=O)(O)O [Risedronate, 1-hydroxy-2-(3-pyridinyl)-ethylidene-1,1-bisphosphonic acid]
- Histopathology: animals with deep ulceration of epithelial surface (canine esophagus; [3]): 4 of 8 animals
- Histopathology: esophageal epithelial surface (canine esophagus; [3]): deep ulceration of the epithelial surface
- Histopathology: submucosal inflammation and vacuolation (canine esophagus; [3]): marked submucosal inflammation and vacuolation
- Esophageal irritation potential (canine esophagus): high
- Antiresorptive bone effect, cyclic versus continuous daily dosing (bone [1]): less effective than continuous daily dosing

SMILES: NCCCC(O)(P(=O)(O)O)P(=O)(O)O [Alendronate, 4-amino-1-hydroxybutylidene-1,1-bisphosphonic acid monosodium trihydrate]
- Adverse esophageal effects associated with use (esophagus): esophagitis and/or esophageal ulcers
- Histopathology: esophageal epithelial surface (canine esophagus; [4]): deep ulceration of the epithelial surface
- Histopathology: submucosal inflammation and vacuolation (canine esophagus; [4]): marked submucosal inflammation and vacuolation
- Histopathology: esophageal epithelial surface (canine esophagus; [5]): deep ulceration of the epithelial surface
- Histopathology: submucosal inflammation and vacuolation (canine esophagus; [5]): marked submucosal inflammation and vacuolation
- Histopathology: vacuolation (canine esophagus; 0.80 mg/mL alendronate, 50 mL, 1x weekly for a total of 4 doses, sacrifice 7 days after last dosing (Group 5, n = 6)): no
- Histopathology: esophageal epithelium (canine esophagus; [6]): normal with an intact epithelium
- Histopathology: submucosal inflammation (canine esophagus; [6]): absence of inflammatory cells in the submucosa and no
- Histopathology: esophageal epithelial surface (canine esophagus; [7]): intact epithelial surface
- Histopathology: submucosal inflammation and vacuolation (canine esophagus; [7]): very slight submucosal inflammation and vacuolation
- Histopathology: esophageal epithelium (canine esophagus; [8]): intact epithelium
- Histopathology: vacuolation (canine esophagus; [8]): no vacuolation and no

SMILES: CC(O)(P(=O)(O)O)P(=O)(O)O [Etidronate, 1-hydroxyethane-1,1-diphosphonic acid]
- Effect on bone mineralization (bone [2]; at doses used clinically): impairs mineralization
- Effect on bone mineralization (bone [2]; given daily for more than several days): decline in bone mineralization
